Results: ChEMBL document CHEMBL3991601, “The target landscape of clinical kinase drugs” (Science, 2017)
Calls of active or inactive are those of the source. On the calls: in the data inactive means no Kd found up to 30 µM.

Tests used:
[1] = target: Eukaryotic peptide chain release factor GTP-binding subunit ERF3B (Homo sapiens, UniProt Q8IYD1)
[2] = target: Serine/threonine-protein kinase PLK1 (Homo sapiens, UniProt P53350)
[3] = target: Cyclin-dependent kinase 10 (Homo sapiens, UniProt Q15131)
Chain of Cyclin-dependent kinase 10 (Q15131 whole entry): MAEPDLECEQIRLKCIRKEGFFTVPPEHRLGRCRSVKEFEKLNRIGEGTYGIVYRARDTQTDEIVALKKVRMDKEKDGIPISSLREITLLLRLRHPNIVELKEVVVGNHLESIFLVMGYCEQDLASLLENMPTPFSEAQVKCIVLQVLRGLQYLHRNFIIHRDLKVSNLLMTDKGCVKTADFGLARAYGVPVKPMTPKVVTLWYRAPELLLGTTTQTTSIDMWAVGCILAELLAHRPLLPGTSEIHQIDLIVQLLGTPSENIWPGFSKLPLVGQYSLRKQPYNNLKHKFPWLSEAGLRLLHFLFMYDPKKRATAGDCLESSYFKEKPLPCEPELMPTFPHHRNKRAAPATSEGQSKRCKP

[4] = target: Serine/threonine-protein kinase N3 (Homo sapiens, UniProt Q6P5Z2)
[5] = target: T1, Cyclin-dependent kinase-like 5 (Homo sapiens, UniProt O76039)
T1 sequence (O76039 whole entry): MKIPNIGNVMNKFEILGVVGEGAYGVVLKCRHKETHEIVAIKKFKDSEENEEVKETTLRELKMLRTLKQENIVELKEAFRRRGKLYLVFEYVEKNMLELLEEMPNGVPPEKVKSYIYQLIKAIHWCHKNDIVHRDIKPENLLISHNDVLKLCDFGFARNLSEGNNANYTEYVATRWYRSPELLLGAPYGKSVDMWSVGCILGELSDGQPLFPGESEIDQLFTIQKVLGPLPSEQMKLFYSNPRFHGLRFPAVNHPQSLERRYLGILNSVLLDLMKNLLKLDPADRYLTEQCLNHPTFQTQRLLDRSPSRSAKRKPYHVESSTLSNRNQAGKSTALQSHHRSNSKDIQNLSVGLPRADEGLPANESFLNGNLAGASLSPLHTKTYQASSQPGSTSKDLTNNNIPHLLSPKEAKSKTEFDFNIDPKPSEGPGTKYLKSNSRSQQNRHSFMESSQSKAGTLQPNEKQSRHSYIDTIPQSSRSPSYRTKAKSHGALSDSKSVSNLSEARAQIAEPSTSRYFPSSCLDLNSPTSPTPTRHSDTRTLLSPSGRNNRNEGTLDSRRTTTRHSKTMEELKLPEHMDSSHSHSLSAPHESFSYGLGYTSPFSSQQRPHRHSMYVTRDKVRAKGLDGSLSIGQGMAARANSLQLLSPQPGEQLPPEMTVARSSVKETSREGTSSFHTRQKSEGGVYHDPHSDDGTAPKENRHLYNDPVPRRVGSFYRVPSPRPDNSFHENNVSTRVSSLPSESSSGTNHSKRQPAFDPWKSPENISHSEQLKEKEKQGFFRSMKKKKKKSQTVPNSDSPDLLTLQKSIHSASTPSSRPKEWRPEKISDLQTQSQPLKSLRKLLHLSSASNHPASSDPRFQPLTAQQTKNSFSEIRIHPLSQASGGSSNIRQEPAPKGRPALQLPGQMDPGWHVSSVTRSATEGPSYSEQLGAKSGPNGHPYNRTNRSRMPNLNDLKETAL

[6] = target: Dual specificity testis-specific protein kinase 2 (Homo sapiens, UniProt Q96S53)
Chain of Dual specificity testis-specific protein kinase 2 (Q96S53 whole entry): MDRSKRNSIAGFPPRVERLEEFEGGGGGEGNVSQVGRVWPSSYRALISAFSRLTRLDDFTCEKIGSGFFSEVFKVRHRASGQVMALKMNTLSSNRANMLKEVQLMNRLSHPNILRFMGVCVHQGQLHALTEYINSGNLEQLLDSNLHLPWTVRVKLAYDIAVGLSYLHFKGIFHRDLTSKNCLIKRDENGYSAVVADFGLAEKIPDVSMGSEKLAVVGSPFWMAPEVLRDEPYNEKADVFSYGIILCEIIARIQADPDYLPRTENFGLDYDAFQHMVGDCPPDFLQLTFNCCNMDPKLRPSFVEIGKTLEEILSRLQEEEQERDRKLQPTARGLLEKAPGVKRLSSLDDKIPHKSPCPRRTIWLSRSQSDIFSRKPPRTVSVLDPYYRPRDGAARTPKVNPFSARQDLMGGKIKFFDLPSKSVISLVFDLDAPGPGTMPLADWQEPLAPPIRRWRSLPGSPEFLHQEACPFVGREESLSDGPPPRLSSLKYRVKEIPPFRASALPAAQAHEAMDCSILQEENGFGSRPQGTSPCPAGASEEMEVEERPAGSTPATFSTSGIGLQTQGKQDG

[7] = target: T2, Dual specificity mitogen-activated protein kinase kinase 4 (Homo sapiens, UniProt P45985)
T2 sequence (P45985 whole entry): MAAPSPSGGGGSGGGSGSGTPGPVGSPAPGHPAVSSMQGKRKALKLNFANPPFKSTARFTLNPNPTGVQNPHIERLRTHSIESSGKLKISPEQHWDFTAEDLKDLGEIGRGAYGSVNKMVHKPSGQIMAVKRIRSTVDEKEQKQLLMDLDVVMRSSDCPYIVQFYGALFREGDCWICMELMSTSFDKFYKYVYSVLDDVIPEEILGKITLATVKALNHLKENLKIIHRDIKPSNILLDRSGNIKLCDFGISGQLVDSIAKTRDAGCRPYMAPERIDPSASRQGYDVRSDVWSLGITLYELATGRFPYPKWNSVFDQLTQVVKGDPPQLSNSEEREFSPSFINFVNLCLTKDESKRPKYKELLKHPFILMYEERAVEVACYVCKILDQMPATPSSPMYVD

[8] = target: Serine/threonine-protein kinase pim-2 (Homo sapiens, UniProt Q9P1W9)
Chain of Serine/threonine-protein kinase pim-2 (Q9P1W9 whole entry): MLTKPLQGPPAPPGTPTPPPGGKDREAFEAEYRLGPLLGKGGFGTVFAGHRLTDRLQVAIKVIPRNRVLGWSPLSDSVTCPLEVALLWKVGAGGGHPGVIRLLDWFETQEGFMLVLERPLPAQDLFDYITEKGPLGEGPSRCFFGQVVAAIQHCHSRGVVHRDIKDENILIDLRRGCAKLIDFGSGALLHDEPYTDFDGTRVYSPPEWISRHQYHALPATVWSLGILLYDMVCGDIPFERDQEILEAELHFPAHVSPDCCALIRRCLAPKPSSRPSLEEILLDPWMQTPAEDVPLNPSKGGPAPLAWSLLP

[9] = target: Serine/threonine-protein kinase 38 (Homo sapiens, UniProt Q15208)
Chain of Serine/threonine-protein kinase 38 (Q15208 whole entry): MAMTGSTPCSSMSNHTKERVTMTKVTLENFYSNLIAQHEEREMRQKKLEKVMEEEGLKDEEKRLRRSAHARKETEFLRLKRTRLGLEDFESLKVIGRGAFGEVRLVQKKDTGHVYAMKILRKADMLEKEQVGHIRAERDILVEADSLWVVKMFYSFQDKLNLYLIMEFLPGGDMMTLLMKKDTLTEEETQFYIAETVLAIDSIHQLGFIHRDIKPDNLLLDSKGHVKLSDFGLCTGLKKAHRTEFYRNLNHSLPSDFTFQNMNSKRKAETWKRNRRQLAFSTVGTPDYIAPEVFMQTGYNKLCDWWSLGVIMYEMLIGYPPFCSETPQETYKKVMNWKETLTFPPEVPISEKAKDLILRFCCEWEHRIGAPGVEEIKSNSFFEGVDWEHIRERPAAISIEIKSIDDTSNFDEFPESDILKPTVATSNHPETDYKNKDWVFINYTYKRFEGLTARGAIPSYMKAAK

[10] = target: Serine/threonine-protein kinase 38-like (Homo sapiens, UniProt Q9Y2H1)
Chain of Serine/threonine-protein kinase 38-like (Q9Y2H1 whole entry): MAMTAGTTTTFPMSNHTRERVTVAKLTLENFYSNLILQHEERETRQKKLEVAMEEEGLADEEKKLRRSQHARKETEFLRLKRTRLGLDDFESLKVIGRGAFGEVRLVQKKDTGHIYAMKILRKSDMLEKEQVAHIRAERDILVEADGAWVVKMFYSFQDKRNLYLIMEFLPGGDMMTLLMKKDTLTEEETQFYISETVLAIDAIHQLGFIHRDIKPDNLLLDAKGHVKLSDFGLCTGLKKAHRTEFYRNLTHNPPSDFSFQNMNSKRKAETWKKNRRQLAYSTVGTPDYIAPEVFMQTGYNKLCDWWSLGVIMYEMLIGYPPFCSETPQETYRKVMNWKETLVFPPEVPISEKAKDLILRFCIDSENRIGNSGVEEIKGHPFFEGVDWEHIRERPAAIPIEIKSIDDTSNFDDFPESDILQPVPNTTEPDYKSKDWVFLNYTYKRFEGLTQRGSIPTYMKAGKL

[11] = target: T3, Tyrosine-protein kinase Mer (Homo sapiens, UniProt Q12866)
T3 sequence (Q12866 whole entry): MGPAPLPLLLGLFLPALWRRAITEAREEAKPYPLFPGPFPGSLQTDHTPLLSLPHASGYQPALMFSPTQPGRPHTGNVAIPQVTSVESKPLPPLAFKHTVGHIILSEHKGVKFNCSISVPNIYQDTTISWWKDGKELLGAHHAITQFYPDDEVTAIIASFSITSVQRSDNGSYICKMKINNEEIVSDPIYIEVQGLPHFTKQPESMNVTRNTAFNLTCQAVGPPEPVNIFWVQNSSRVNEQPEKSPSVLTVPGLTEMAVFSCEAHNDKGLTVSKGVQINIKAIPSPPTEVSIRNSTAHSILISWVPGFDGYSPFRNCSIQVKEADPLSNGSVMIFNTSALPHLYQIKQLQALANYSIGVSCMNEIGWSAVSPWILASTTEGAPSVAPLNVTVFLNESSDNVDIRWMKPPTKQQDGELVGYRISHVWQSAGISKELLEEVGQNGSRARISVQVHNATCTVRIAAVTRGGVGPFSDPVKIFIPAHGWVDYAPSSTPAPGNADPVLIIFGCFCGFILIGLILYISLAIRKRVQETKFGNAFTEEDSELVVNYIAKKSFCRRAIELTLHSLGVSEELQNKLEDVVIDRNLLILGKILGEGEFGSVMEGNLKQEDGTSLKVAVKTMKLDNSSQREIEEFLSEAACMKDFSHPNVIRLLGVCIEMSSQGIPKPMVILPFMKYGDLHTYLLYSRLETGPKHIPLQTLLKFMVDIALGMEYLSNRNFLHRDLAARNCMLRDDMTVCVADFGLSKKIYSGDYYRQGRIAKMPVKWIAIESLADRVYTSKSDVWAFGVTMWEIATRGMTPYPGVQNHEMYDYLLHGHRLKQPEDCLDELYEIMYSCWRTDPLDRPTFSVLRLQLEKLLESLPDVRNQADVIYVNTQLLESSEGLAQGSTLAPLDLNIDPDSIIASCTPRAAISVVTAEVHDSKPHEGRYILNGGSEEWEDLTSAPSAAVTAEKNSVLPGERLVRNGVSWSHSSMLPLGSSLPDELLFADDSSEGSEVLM

[12] = target: Tyrosine-protein kinase Fgr (Homo sapiens, UniProt P09769)
Misshapen-like kinase 1 = Misshapen-like kinase 1 (Homo sapiens, UniProt Q8N4C8)
Chain of Misshapen-like kinase 1 (Q8N4C8 whole entry): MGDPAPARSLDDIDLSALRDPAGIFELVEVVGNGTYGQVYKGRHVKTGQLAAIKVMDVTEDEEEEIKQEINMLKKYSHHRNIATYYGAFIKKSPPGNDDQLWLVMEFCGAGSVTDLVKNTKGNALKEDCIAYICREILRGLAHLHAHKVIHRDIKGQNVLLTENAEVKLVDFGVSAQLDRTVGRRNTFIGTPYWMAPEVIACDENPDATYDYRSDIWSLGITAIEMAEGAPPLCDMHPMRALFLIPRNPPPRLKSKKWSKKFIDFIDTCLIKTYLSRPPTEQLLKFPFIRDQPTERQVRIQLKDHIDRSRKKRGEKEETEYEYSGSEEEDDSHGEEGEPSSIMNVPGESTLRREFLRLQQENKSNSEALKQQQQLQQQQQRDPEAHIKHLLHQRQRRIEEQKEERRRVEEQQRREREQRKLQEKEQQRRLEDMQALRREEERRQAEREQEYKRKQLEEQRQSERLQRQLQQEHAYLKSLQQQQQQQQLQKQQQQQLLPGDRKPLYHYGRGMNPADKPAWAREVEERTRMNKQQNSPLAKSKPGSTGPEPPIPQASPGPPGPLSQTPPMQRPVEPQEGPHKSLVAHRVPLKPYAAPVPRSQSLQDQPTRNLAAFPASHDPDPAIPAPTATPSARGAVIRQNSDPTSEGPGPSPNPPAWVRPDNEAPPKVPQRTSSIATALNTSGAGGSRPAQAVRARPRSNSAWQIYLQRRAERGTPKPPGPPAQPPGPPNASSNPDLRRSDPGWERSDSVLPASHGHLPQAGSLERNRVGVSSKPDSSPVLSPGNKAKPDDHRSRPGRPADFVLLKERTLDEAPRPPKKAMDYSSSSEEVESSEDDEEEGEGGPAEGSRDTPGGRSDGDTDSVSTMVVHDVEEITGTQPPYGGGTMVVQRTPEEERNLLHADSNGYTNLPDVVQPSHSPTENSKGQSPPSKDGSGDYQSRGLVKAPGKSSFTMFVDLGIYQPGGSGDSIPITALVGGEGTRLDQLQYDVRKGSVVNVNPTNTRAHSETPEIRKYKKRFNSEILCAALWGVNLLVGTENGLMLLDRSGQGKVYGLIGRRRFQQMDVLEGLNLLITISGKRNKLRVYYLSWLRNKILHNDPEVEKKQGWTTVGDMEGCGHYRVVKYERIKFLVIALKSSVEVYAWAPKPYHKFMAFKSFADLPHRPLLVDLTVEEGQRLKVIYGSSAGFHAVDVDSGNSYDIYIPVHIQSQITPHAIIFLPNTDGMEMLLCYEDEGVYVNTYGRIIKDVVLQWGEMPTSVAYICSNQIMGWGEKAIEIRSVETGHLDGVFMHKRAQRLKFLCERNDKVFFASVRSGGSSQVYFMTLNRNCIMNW

Chain of Eukaryotic peptide chain release factor GTP-binding subunit ERF3B (Q8IYD1 whole entry): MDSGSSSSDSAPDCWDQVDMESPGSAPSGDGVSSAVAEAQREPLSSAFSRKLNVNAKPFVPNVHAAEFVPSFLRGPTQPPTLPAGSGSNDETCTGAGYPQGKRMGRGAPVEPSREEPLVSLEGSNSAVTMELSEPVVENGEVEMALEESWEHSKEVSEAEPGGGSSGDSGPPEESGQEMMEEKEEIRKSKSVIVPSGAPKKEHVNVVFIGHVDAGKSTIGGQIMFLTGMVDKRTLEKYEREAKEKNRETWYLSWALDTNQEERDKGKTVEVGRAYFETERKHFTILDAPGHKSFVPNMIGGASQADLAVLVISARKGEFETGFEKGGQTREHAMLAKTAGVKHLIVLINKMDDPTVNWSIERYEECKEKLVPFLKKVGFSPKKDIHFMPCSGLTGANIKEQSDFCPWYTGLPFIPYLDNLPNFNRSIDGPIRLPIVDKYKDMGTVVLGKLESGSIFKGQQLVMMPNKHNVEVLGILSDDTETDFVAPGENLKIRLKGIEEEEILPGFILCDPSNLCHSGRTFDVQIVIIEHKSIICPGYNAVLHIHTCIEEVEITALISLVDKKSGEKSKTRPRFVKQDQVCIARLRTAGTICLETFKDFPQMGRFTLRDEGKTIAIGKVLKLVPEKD
Chain of Serine/threonine-protein kinase PLK1 (P53350 whole entry): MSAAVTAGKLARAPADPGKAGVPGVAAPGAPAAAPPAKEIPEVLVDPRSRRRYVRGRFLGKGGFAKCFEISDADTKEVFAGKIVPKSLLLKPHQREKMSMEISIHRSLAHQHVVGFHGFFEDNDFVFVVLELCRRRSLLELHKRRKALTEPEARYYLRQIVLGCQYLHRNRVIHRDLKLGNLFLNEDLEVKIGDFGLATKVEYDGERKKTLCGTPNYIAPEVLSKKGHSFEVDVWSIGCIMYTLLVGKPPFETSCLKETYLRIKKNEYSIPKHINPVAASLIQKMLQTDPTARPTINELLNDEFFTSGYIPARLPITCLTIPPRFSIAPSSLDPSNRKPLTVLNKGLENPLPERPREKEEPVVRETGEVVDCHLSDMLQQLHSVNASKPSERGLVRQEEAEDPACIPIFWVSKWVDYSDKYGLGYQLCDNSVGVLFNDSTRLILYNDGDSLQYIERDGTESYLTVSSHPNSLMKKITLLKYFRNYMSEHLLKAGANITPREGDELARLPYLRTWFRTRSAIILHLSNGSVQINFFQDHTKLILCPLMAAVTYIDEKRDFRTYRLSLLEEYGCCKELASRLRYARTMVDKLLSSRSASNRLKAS

Structure (SMILES)	Kd [1]	Kd [2]	Kd [3]	Kd [4]	Kd [5]	Kd [6]	Kd [7]	Kd [8]	Kd [9]	Kd [10]	Kd [11]	Kd [12]	Kd (Misshapen-like kinase 1)
COc1cc2nccc(Oc3ccc(NC(=O)C4(C(=O)Nc5ccc(F)cc5)CC4)cc3)c2cc1OC [CABOZANTINIB]	> 30 µM (inactive)	> 30 µM (inactive)											
Cc1cc(Nc2nc(N[C@@H](C)c3ncc(F)cn3)ncc2Cl)n[nH]1 [AZD-1480]	> 30 µM (inactive)	> 30 µM (inactive)	> 30 µM (inactive)	> 30 µM (inactive)	> 30 µM (inactive)	> 30 µM (inactive)	> 30 µM (inactive)	> 30 µM (inactive)					
COc1cc2ncnc3c2cc1OCCCCCN(C)Cc1ccc(Br)cc1N3 [JNJ-26483327]						> 30 µM (inactive)			> 30 µM (inactive)				
C=CCn1c(=O)c2cnc(Nc3ccc(N4CCN(C)CC4)cc3)nc2n1-c1cccc(C(C)(C)O)n1 [ADAVOSERTIB]		> 30 µM (inactive)		> 30 µM (inactive)	> 30 µM (inactive)	> 30 µM (inactive)		> 30 µM (inactive)	> 30 µM (inactive)	> 30 µM (inactive)	> 30 µM (inactive)		
Cn1c(=O)c(F)c(Nc2ccc(I)cc2F)c2c(=O)n(C[C@@H](O)CO)cnc21 [TAK-733]				> 30 µM (inactive)		> 30 µM (inactive)	> 30 µM (inactive)	> 30 µM (inactive)	> 30 µM (inactive)				
CC[C@@](C)(Nc1ccnc(-c2c[nH]c3ncccc23)n1)C(=O)NCC(F)(F)F [DECERNOTINIB]					> 30 µM (inactive)				> 30 µM (inactive)				
O=C(NOC[C@H](O)CO)c1ccc(F)c(F)c1Nc1ccc(I)cc1F [MIRDAMETINIB]		> 30 µM (inactive)		> 30 µM (inactive)			> 30 µM (inactive)	> 30 µM (inactive)			> 30 µM (inactive)	> 30 µM (inactive)	> 30 µM (inactive)
CC(C)(O)CC(=O)NCCn1ccc2ncnc(Nc3ccc(Oc4cccc(C(F)(F)F)c4)c(Cl)c3)c21 [TAK-285]				> 30 µM (inactive)	> 30 µM (inactive)		> 30 µM (inactive)		> 30 µM (inactive)				
CC1(C)CNc2cc(NC(=O)c3cccnc3NCc3ccncc3)ccc21 [MOTESANIB]	0.003 µM		> 30 µM (inactive)			> 30 µM (inactive)							
C[C@@H]1COC(Nc2ccc3ncnc(Nc4ccc(OCc5nccs5)c(Cl)c4)c3c2)=N1 [VARLITINIB]				> 30 µM (inactive)	> 30 µM (inactive)	> 30 µM (inactive)	> 30 µM (inactive)	> 30 µM (inactive)	> 30 µM (inactive)	> 30 µM (inactive)	> 30 µM (inactive)		> 30 µM (inactive)
CN(C)C/C=C/C(=O)Nc1cc2c(Nc3ccc(F)c(Cl)c3)ncnc2cc1O[C@H]1CCOC1 [AFATINIB]	> 30 µM (inactive)			> 30 µM (inactive)									
NC(=O)c1ccc(N(C(N)=O)c2c(F)cccc2F)nc1-c1ccc(F)cc1F [VX-702]		> 30 µM (inactive)		> 30 µM (inactive)	> 30 µM (inactive)	> 30 µM (inactive)	> 30 µM (inactive)		> 30 µM (inactive)	> 30 µM (inactive)			
COc1cc2ncnc(Nc3ccc(O)cc3)c2cc1OC [WHI-P131]		> 30 µM (inactive)	> 30 µM (inactive)	> 30 µM (inactive)	> 30 µM (inactive)	> 30 µM (inactive)	> 30 µM (inactive)	> 30 µM (inactive)	> 30 µM (inactive)				
Cn1c(=O)n(-c2ccc(C(C)(C)C#N)cc2)c2c3cc(-c4cnc5ccccc5c4)ccc3ncc21 [DACTOLISIB]	> 30 µM (inactive)			> 30 µM (inactive)					> 30 µM (inactive)	> 30 µM (inactive)			> 30 µM (inactive)
C=CC(=O)Nc1cc(Nc2nccc(-c3cn(C)c4ccccc34)n2)c(OC)cc1N(C)CCN(C)C [OSIMERTINIB]	> 30 µM (inactive)			> 30 µM (inactive)	> 30 µM (inactive)	> 30 µM (inactive)			> 30 µM (inactive)				> 30 µM (inactive)
COc1ccc2c(OCc3nnc4ccc(-c5ccccc5)nn34)ccnc2c1 [AMG-208]				> 30 µM (inactive)	> 30 µM (inactive)	> 30 µM (inactive)	> 30 µM (inactive)			> 30 µM (inactive)	> 30 µM (inactive)	> 30 µM (inactive)	
CC1(COc2ccc3c(c2)ncn3-c2ccc3cccc(N4CCC(N)CC4)c3n2)COC1 [CRENOLANIB]	> 30 µM (inactive)	> 30 µM (inactive)	> 30 µM (inactive)	> 30 µM (inactive)	> 30 µM (inactive)	> 30 µM (inactive)	> 30 µM (inactive)			> 30 µM (inactive)			
COc1cccc2cc(-c3nc([C@H]4CC[C@H](C(=O)O)CC4)n4ncnc(N)c34)[nH]c12 [OSI-027]	> 30 µM (inactive)							> 30 µM (inactive)					
O=c1[nH]c([C@@H]2CCCN2)nc2c1oc1ccc(Cl)cc12								> 30 µM (inactive)	> 30 µM (inactive)	> 30 µM (inactive)			
COc1ccc(-c2ccc3ncc4c(c3c2)n(-c2ccc(N3CCNCC3)c(C(F)(F)F)c2)c(=O)n4C)cn1 [BGT-226 FREE BASE]		> 30 µM (inactive)				> 30 µM (inactive)		> 30 µM (inactive)				> 30 µM (inactive)	> 30 µM (inactive)
O=S(=O)(c1cccc2c(O)nccc12)N1CCCNCC1 [HYDROXYFASUDIL]	> 30 µM (inactive)		> 30 µM (inactive)	> 30 µM (inactive)	> 30 µM (inactive)		> 30 µM (inactive)	> 30 µM (inactive)		> 30 µM (inactive)	> 30 µM (inactive)		
CC(C)CC(=O)Nc1[nH]nc2c1CN(C(=O)C1CCN(C)CC1)C2(C)C [PHA-793887]		> 30 µM (inactive)						> 30 µM (inactive)				> 30 µM (inactive)	
